According to ChEMBL document CHEMBL3813624, “Discovery of hydroxyl 1,2-diphenylethanamine analogs as potent cholesterol ester transfer protein inhibitors” (Bioorg Med Chem Lett, 2016):
In brackets after ≈: the same amount, converted by molar mass.

How the values were obtained:
[1] = biological target: T1, Cholesteryl ester transfer protein (Homo sapiens, UniProt P11597); experiment: Inhibition of human recombinant CETP assessed as reduction in [3H]cholesteryl ester transfer from [3H]CE-HDL to biotinylated LDL by scintillation proximity assay
T1 sequence (P11597 whole entry): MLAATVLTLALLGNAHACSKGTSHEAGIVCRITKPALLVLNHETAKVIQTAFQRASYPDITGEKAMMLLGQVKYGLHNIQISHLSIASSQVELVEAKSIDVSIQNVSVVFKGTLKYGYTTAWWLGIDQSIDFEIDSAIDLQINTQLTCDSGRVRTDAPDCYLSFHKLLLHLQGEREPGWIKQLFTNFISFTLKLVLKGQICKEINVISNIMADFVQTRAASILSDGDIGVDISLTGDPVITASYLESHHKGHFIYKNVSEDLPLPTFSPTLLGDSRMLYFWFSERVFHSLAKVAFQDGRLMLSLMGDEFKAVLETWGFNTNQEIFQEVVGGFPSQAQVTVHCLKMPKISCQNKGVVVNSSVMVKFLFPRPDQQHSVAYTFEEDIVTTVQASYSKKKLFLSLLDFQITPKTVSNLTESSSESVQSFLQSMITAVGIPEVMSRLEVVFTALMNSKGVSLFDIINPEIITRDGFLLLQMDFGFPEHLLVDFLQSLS

[2] = biological target: T1, Cholesteryl ester transfer protein; experiment: Inhibition of CETP in human whole plasma assessed as reduction in [3H]cholesteryl ester transfer from [3H]CE-HDL to LDL/VLDL; assay type: cell-free
[3] = Aqueous solubility of compound; assay type: physicochemical; conditions: buffer
[4] = Metabolic stability in rat liver microsomes assessed as compound remaining at 3 uM after 10 mins by UV absorbance method; assay type: ADME; conditions: read-out: Stability
[5] = Metabolic stability in human liver microsomes assessed as compound remaining at 3 uM after 10 mins by UV absorbance method; assay type: ADME; conditions: read-out: Stability
[6] = Metabolic stability in mouse liver microsomes assessed as compound remaining at 3 uM after 10 mins by UV absorbance method; assay type: ADME; conditions: read-out: Stability
[7] = biological target: T2, Voltage-gated inwardly rectifying potassium channel KCNH2 (Homo sapiens, UniProt Q12809); experiment: Inhibition of recombinant human ERG flux expressed in HEK293 cells by patch clamp assay; assay type: cell-based
[8] = Plasma concentration in dual transgenic mouse expressing human CETP/ApoB-100 at 1 mg/kg, po measured at 2 hrs post dose; assay type: ADME, organism-based
[9] = Ratio of plasma concentration in dual transgenic mouse expressing human CETP/ApoB-100 at 10 mg/kg, po measured at 2 hrs post dose to IC50 for CETP in human whole plasma; assay type: ADME, organism-based; conditions: in vivo
[10] = Plasma concentration in dual transgenic mouse expressing human CETP/ApoB-100 at 10 mg/kg, po measured at 2 hrs post dose; assay type: ADME, organism-based
[11] = Plasma concentration in dual transgenic mouse expressing human CETP/ApoB-100 at 1 mg/kg, po measured at 8 hrs post dose; assay type: ADME, organism-based
[12] = Plasma concentration in dual transgenic mouse expressing human CETP/ApoB-100 at 1 mg/kg, po measured at 4 hrs post dose; assay type: ADME, organism-based
[13] = Plasma concentration in dual transgenic mouse expressing human CETP/ApoB-100 at 3 mg/kg, po measured at 4 hrs post dose; assay type: ADME, organism-based
[14] = AUC (0 to 8 hrs) in dual transgenic mouse plasma expressing human CETP/ApoB-100 at 10 mg/kg, po; assay type: ADME, organism-based; parameters: time < 8 hr, dose 10 mg/kg, route oral
[15] = Plasma concentration in dual transgenic mouse expressing human CETP/ApoB-100 at 10 mg/kg, po measured at 8 hrs post dose; assay type: ADME, organism-based
[16] = Plasma concentration in dual transgenic mouse expressing human CETP/ApoB-100 at 3 mg/kg, po measured at 8 hrs post dose; assay type: ADME, organism-based
[17] = Plasma concentration in dual transgenic mouse expressing human CETP/ApoB-100 at 10 mg/kg, po measured at 4 hrs post dose; assay type: ADME, organism-based
[18] = AUC (0 to 8 hrs) in dual transgenic mouse plasma expressing human CETP/ApoB-100 at 3 mg/kg, po; assay type: ADME, organism-based; parameters: dose 3 mg/kg, time < 8 hr, route oral
[19] = Ratio of plasma concentration in dual transgenic mouse expressing human CETP/ApoB-100 at 10 mg/kg, po measured at 4 hrs post dose to IC50 for CETP in human whole plasma; assay type: ADME, organism-based; conditions: in vivo
[20] = Plasma concentration in dual transgenic mouse expressing human CETP/ApoB-100 at 3 mg/kg, po measured at 2 hrs post dose; assay type: ADME, organism-based
[21] = AUC (0 to 8 hrs) in dual transgenic mouse plasma expressing human CETP/ApoB-100 at 1 mg/kg, po; assay type: ADME, organism-based; parameters: time < 8 hr, dose 1 mg/kg, route oral
Mus musculus = experiment: In vivo inhibition of human CETP-mediated [3H]cholesteryl ester transfer in human CETP expressed transgenic mouse coexpressing ApoB-100 at 3 to 10 mg/kg, po measured at 8 hrs post dose relative to control; assay type: functional
[22] = biological target: T2, Voltage-gated inwardly rectifying potassium channel KCNH2; experiment: Inhibition of recombinant human ERG expressed in HEK293 cells assessed as inhibition of peak tail current by patch clamp assay; assay type: cell-based

T2 sequence (Q12809 whole entry): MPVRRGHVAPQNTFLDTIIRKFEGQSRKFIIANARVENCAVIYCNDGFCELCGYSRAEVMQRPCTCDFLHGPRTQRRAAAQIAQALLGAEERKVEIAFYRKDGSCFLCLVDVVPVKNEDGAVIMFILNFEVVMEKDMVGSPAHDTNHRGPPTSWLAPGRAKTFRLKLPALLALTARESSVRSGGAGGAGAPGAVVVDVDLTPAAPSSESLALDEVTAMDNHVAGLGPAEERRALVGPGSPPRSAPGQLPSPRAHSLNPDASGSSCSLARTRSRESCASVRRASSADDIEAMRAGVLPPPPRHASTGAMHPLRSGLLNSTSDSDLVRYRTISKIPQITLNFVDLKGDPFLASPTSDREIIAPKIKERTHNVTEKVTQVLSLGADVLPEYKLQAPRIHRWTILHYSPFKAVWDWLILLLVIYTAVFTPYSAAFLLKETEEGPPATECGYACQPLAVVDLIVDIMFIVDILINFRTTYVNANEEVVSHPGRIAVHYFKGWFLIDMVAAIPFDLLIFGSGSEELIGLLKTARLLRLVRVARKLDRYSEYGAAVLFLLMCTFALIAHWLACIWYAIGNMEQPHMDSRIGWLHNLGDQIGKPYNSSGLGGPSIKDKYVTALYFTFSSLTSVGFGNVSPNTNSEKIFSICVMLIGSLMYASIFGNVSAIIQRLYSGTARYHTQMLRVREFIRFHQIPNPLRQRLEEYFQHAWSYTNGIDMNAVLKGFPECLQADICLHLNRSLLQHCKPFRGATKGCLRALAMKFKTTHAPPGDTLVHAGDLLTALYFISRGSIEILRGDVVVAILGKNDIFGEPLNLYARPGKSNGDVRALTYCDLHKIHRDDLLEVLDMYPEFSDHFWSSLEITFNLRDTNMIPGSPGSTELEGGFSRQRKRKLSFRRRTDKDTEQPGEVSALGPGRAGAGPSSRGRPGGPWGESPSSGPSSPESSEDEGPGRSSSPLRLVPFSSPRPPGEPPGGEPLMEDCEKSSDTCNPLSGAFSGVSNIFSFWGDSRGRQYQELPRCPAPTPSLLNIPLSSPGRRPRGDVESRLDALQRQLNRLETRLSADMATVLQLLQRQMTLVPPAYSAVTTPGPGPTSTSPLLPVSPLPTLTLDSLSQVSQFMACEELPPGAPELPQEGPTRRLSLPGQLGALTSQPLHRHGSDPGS

SMILES	IC50 [1]	IC50 [2]	solubility [3]	remaining at 10 min, 3 µM [4]	remaining at 10 min, 3 µM [5]	remaining at 10 min, 3 µM [6]	other results
CC(=O)O[C@H](CN[C@@](Cc1ccccc1)(c1cc(F)cc(C(F)(F)F)c1)c1ccc(Cl)cn1)C(F)(F)F	826 nM	100000 nM	< 1 µg/mL				
O[C@H](CN[C@@](Cc1ccccc1)(c1cc(F)cc(C(F)(F)F)c1)c1ccc(Cl)cn1)C(F)(F)F	22 nM	1600 nM	< 1 µg/mL	88%	100%	95%	
CC(C)Oc1cc([C@@](Cc2ccccc2)(NC[C@H](O)C(F)(F)F)c2cc(F)cc(OC(F)(F)C(F)F)c2)ccc1F	2.9 nM	238 nM					IC50 [7]: 12000 nM
OC(CN[C@@](Cc1ccccc1)(c1cc(F)cc(C(F)(F)F)c1)c1ccc(Cl)cn1)CC(F)(F)F (stereo partly drawn)	9 nM	1200 nM	< 1 µg/mL	69%	93%	73%	
OC[C@H](O)CN[C@@](Cc1ccccc1)(c1cc(F)cc(C(F)(F)F)c1)c1ccc(Cl)cn1	8530 nM		44 µg/mL (≈ 93.8 µM)				

Continued by falling IC50 [1], values first:

IC50 [1]	IC50 [2]	solubility [3]	remaining at 10 min, 3 µM [4]	remaining at 10 min, 3 µM [5]	remaining at 10 min, 3 µM [6]	SMILES	other results
641 nM	30000 nM	< 1 µg/mL				O=C(CN[C@@](Cc1ccccc1)(c1cc(F)cc(C(F)(F)F)c1)c1ccc(Cl)cn1)CC(F)(F)F	
334 nM	20000 nM	< 1 µg/mL				C[C@H](O)CN[C@@](Cc1ccccc1)(c1cc(F)cc(C(F)(F)F)c1)c1ccc(Cl)cn1	
1.3 nM	49 nM		83%	83%	85%	CC(C)Oc1cc([C@@](Cc2ccccc2)(NC[C@H](O)CC(F)(F)F)c2cc(F)cc(OC(F)(F)C(F)F)c2)ccc1F	concentration at 2 h [8]: 180 nM; IC50 [7]: 28000 nM; Ratio [9]: 19; concentration at 2 h [10]: 960 nM; concentration at 8 h [11]: 28 nM; concentration at 4 h [12]: 54 nM; concentration at 4 h [13]: 89 nM; AUC(0-t) at 8 h [14]: 2.66 µM·h; concentration at 8 h [15]: 92 nM; concentration at 8 h [16]: 45 nM; concentration at 4 h [17]: 250 nM; AUC(0-t) at 8 h [18]: 1.04 µM·h; Ratio [19]: 5; concentration at 2 h [20]: 380 nM; AUC(0-t) at 8 h [21]: 0.543 µM·h; inhibition (INH) (Mus musculus): 50%; IC50 [22]: 25600 nM
